{"source": "patent US8183230B2", "about": "“Antimicrobial preservatives to achieve multi-dose formulation using beta-cyclodextrins for liquid dosage forms” (priority 2004, dated 2012)", "key": {"[1]": {"system": "Escherichia coli, Pseudomonas aeruginosa, Staphylococcus aureus, Candida albicans, Aspergillus niger", "assay": "Hybrid USP/Ph. Eur. antimicrobial effectiveness test (AET)", "format": "cell-based", "procedure": "Preparation of Preserved Formulations. […] Antimicrobial preservatives with optimal activity at a pH outside the nominal formulation value (pH 4.4) were titrated to either 3.5 or 5.0 using 1 N HCl or 1 N NaOH. A stock solution of either 10% or 5% (weight/volume) SBE-CD containing 10 mgA/mL of the compound of Formula Ia citrate was prepared. Preservative was added to the respective formulation on a weight basis.\nAntimicrobial Efficacy Testing. A hybrid USP […]/Ph. Eur. 2000 antimicrobial effectiveness test (AET) was performed, as follows: 20 mL of drug product was individually inoculated with 0.1-0.2 mL of bacterial or fungal culture, per USP/Ph. Eur. compendial requirements. The final concentration of organisms in the test sample was between 1×10^5 and 1×10^6 cfu/mL. At initial 6 hr, 24 hr, 7 day, 14 day, and 28 day time intervals, 1 mL of the inoculated product was transferred into 9 mL of a recovery diluent, that was validated to confirm neutralization of the antimicrobial preservative. One mL of the diluted sample was then transferred to a sterile petri dish and combined with 15-20 mL of an agar broth to culture the organisms. Plates were then incubated for 3 to 5 days, upon which colonies were counted. Initial organism contamination was then calculated based on dilution of the initial sample.\nGenerally, the USP test requirements are less stringent than Ph. Eur. requirements, which typically have an immediate bacteriocidal activity requirement. The Ph. Eur. requirements shown in Table III have either a “Criteria A” or “Criteria B” specification depending on the rate of microorganism reduction, with criteria A requiring an increased bacteriocidal rate. In order to meet the combined hybrid assay, the initial inoculum count of microorganisms needed to be reduced by the amounts listed in Table V."}, "[2]": {"conditions": "Study A; pH: 4.4, SBE-CD: 10%; compound of Formula Ia at 10 mgA/mL; content: ethanol 15%, meta-cresol 0.3%, propylene glycol 50%, thimerosal 0.01", "procedure": "Injection site toleration was measured by inspecting the patient for signs of reaction, including erythema (size); skin thickening (size), pain on palpation and edema. Table VI provides a detailed explanation of the scoring system: a score of 0 (no reaction) to 4 (severe reaction) was given for each characteristic and each injection site daily.\nCompound of Formula Ia formulations were evaluated for injection site toleration (hereinafter “IST”).\nFormulations were tested in groups of 4 dogs comprised of beagles and mongrels. […] Dogs were observed daily for evidence of reaction at the injection site and a score of 0-4 (see Table VI) was given for each of the following parameters: pain on injection, erythema, tissue thickening, pain on palpation and edema. Dogs were observed daily until day 5 (24 hours after the last dose)."}, "[3]": {"system": "Escherichia coli, Pseudomonas aeruginosa, Staphylococcus aureus, Candida albicans, Aspergillus niger", "conditions": "as indicated by literature; cited from earlier work"}}, "note": "Entries after “also recorded” stand apart in the source; their conditions may differ.", "data": [{"smiles": "Cc1cccc(O)c1", "note": "[meta-cresol]", "values": [{"measurement": "reducing the microorganisms", "setting": "[1]", "result": "effective"}, {"measurement": "AET Results Ph. Eur. Criteria A", "setting": "[1]; Study A, pH: 4.4, SBE-CD: 10%, compound of Formula Ia at 10 mgA/mL, content: ethanol 15%, meta-cresol 0.3%, propylene glycol 50%, thimerosal 0.01, cells without ✓ print organism (time point)", "result": "s. aur (6, 24 hr); also recorded: c. alb (7 d)"}, {"measurement": "Ph. Eur. criteria B", "setting": "[1]; leads of Study B", "result": "met criteria B"}, {"measurement": "Ph. Eur. criteria A for preservative efficacy", "setting": "[1]; meta-cresol containing formulations", "result": "robustly meeting Ph. Eur. criteria A"}, {"measurement": "activity against bacteria", "setting": "[1]; when SBE-CD was present in the formulation", "result": "greatly diminished"}, {"measurement": "IST", "setting": "[2]", "result": "Good"}, {"measurement": "USP and Ph. Eur. criteria A or B requirements", "setting": "[3]", "result": "met both the USP and either Ph. Eur. criteria A or B requirements"}]}]}
